For one assay, the system named is mPGES-1. The settings on record: cited from earlier work.
The next assay concerns the target T1, recombinant mPGES-1 (Homo sapiens, UniProt O14684).
T1 sequence (O14684 1-152): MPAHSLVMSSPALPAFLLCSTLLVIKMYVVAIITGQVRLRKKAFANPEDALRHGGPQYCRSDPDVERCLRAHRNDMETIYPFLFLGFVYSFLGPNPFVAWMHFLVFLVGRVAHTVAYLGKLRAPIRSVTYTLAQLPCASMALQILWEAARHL
As to the kind of experiment: in vitro mPGES-1 enzyme activity assay. Format: biochemical. The settings on record: −RTln(Kd) ≈ −RTln(IC50), from measured IC50.

Read-outs that look alike come from different tables or passages of the source.

On to `CSc1ccc(/C=C2/C(C)=C(CC(=O)O)c3cc(F)ccc32)cc1`, for which, in the assay on mPGES-1, the IC50 was 80 µM.

Take `COCCN(c1ccc(/C=C2\S/C(=N\c3ccccc3)N(C(C)C(=O)O)C2=O)cc1)c1ccccc1OC` (stereo not drawn) [Compound 3]: the “ΔGbind^Exp” value on recombinant mPGES-1 is -7.44 kcal/mol.

Take `CCCCC/C=C\C\C=C/C=C/C=C/[C@@H](SC[C@H](NC(=O)CC[C@H](N)C(=O)O)C(=O)NCC(=O)O)[C@@H](O)CCCC(=O)O` [Leukotriene C4]: the half-inhibitory concentration (IC50) result with mPGES-1 (probably by competing with glutathione) is “micromolar”.

Broadly, the IC50 is the concentration at which inhibition is half-maximal.

Source of the values: PMC3183289 (Bioorganic & medicinal chemistry, 2011).
